Measured values reported in patent US20260224594A1, “COMPOSITION FOR TREATING CANCER CACHEXIA, COMPRISING DIFLUNISAL OR A PHARMACEUTICALLY ACCEPTABLE SALT THEREOF” (ANIMUSCURE INC., priority 2023, published 2026).

Experiments:
Pax7 = Pax7 mRNA expression (qRT-PCR); format: cell-based, mouse; details: C2C12 cells treated with diflunisal
Source text: FIGS. 5A-5B and 6 show the results of confirming the stem cell differentiation-promoting effect through administration of diflunisal. […] In addition, it was confirmed whether the expression level of Pax7, which is a muscle proliferation marker, increased due to diflunisal treatment.

C2C12 myoblast cells [1] = test: Cytotoxicity of diflunisal, MTT assay; format: cell-based, mouse; details: approximately 10,000 nM, 18 hours, vs control
Description: C2C12 is a myoblast cell line obtained from the C3H mouse strain, and is widely used to study muscle cell differentiation. The cells were cultured in a cell culture medium (growth medium (GM)), and muscle cell differentiation was induced in a differentiation medium (DM). DMEM containing 15% fetal bovine serum (FBS) was used as the cell culture medium, and DMEM containing 2% horse serum was used as the differentiation medium.
The cytotoxicity of diflunisal (CAS No. 22494-42-4, W06) was evaluated using an MTT assay. C2C12 myoblast cells were treated with diflunisal at concentrations of 0, 1, 10, 100, 1,000, and 10,000 nM for 18 hours, and cell viability was then confirmed using the MTT assay. Myoblast cells (1.0×10^4 cells/96 well) were allowed to react with 5 mg/mL MTT for 4 hours in a cell culture medium, and the eluted reaction product was then measured for absorbance at 570 nm.

C2C12 myoblast cells [2] = test: Dexamethasone (DEX)-induced muscle atrophy in C2C12 myotubes; format: cell-based, mouse; details: 100 μM DEX pretreatment 4 hours, diflunisal 1 μM, 24 hours in DM
Description: To determine whether diflunisal could recover or protect muscles from dexamethasone (DEX)-induced muscle atrophy, this experiment was performed using C2C12 myoblast cells. C2C12 myoblast cells were differentiated in a differentiation medium (DM) for 2 days, pretreated with 100 μM DEX for 4 hours, and then treated with diflunisal (1 μM) together with DMSO as a vehicle. Then, the C2C12 myoblast cells were further cultured in DM for 24 hours. Immunofluorescence staining was performed on dexamethasone-treated C2C12 myotube cells using an MHC antibody to compare and analyze the degree of myotube formation. […] Also, when the expression level of atrogin-1, which is a muscle atrophy marker, was confirmed through immunoblotting, it was confirmed that its expression increased when dexamethasone was administered.

C2C12 cell lines [3] = test: Immunoblotting of differentiation markers MHC and myogenin; format: cell-based, mouse; details: positive control ursolic acid (UA)
Description: C2C12 is a myoblast cell line obtained from the C3H mouse strain, and is widely used to study muscle cell differentiation. The cells were cultured in a cell culture medium (growth medium (GM)), and muscle cell differentiation was induced in a differentiation medium (DM). DMEM containing 15% fetal bovine serum (FBS) was used as the cell culture medium, and DMEM containing 2% horse serum was used as the differentiation medium. To induce muscle cell differentiation, cells were seeded in a cell culture medium and cultured. When the density of cells reached approximately 80% to 90%, the medium was replaced with a differentiation medium, and differentiation was induced for approximately 2 to 3 days. To analyze the effect of diflunisal on the differentiation of muscle stem cells, MHC immunofluorescence staining was performed (FIG. 2). […] On day 3 of differentiation induction, immunofluorescence staining was performed using an MHC antibody to compare and analyze the degree of myotube formation. […] In addition, the expression levels of differentiation markers were confirmed through immunoblotting.

C2C12 cell lines [4] = test: Muscle cell differentiation, MHC immunofluorescence staining and myotube diameter; format: cell-based, mouse; details: 10, 100, 1,000, 10,000 nM, day 3 of differentiation induction
Description: C2C12 is a myoblast cell line obtained from the C3H mouse strain, and is widely used to study muscle cell differentiation. The cells were cultured in a cell culture medium (growth medium (GM)), and muscle cell differentiation was induced in a differentiation medium (DM). DMEM containing 15% fetal bovine serum (FBS) was used as the cell culture medium, and DMEM containing 2% horse serum was used as the differentiation medium. To induce muscle cell differentiation, cells were seeded in a cell culture medium and cultured. When the density of cells reached approximately 80% to 90%, the medium was replaced with a differentiation medium, and differentiation was induced for approximately 2 to 3 days. To analyze the effect of diflunisal on the differentiation of muscle stem cells, MHC immunofluorescence staining was performed (FIG. 2). […] On day 3 of differentiation induction, immunofluorescence staining was performed using an MHC antibody to compare and analyze the degree of myotube formation.

[5] = system: muscle cells (myotubes) in cancer cell culture medium (CM); test: Cachexia induced by cancer cell culture medium (CM) in muscle cells; format: cell-based; details: 10, 100, 1,000 nM
Description: To confirm the amelioration effect of diflunisal on cancer cachexia, cancer cachexia was induced in muscle cells using a cancer cell culture medium (CM) (FIG. 11, top). […] Also, the diameter of the myotubes was measured to confirm the improvement.

C2C12 myoblast cells [6] = test: Myoblast proliferation, BrdU staining; format: cell-based, mouse; details: 1 μM, approximately 20 hours
Description: To analyze the effect of diflunisal on the proliferation of myoblast cells, a BrdU staining experiment was performed. C2C12 myoblast cells were treated with DMSO as a control or diflunisal (1 μM) for approximately 20 hours, and then allowed to react with BrdU for 15 minutes. Thereafter, immunofluorescence staining was performed using an antibody against BrdU (FIG. 5A). As a result, it was confirmed that the proliferation of myoblast cells increased in the group treated with diflunisal.

[7] = system: C57BL/6 mice injected with Lewis lung carcinoma; test: Cancer cachexia animal model (Lewis lung carcinoma injected mice); format: in vivo, mouse
Description: Lewis lung carcinoma (LCC, 5×10^6 cells/mice) was injected into C57BL/6 mice to induce lung cancer. Two weeks after injection, diflunisal was orally administered daily for 21 days at a dose of 0.02 or 0.2 mpk (FIG. 13). Thereafter, the changes in body weight, tumor weight, and tumor-free body weight for each mouse were measured. […] To compare the motor ability in the cancer cachexia-induced mouse model, a grip strength test was conducted for each experimental group. […]

[8] = system: C57BL/6 male mice with CTX-induced muscle damage; test: Stem cell proliferation in cardiotoxin (CTX) muscle damage animal model, BrdU staining of TA muscle; format: in vivo, mouse; details: oral 0.02 mg/kg for 2 weeks, CTX injection, then 0.02 mg/kg for 3 days
Description: C57BL/6 male mice were orally administered diflunisal at a dose of 0.02 mg/kg for 2 weeks, and then on the second week, 10 μM cardiotoxin (CTX) was directly injected into the muscle at 2 μL per g of body weight to induce muscle damage. Thereafter, diflunisal was administered at a dose of 0.02 mg/kg for 3 days. Then, immunofluorescence staining was performed on the TA muscle tissue of the mice using a BrdU antibody. […] Also, a quantitative comparison confirmed that the proportion of BrdU-positive cells increased by more than 2.5 times compared to the control when the cells were treated with diflunisal (FIG. 8).

[9] = cancer cachexia-induced mice, diflunisal administered

Structure (SMILES): O=C(O)c1cc(-c2ccc(F)cc2F)ccc1O [diflunisal]
- relative expression level of Pax7 mRNA (Pax7): increased
- cell viability (MTT assay) (C2C12 myoblast cells [1]): almost similar to that of the control
- MHC expression (immunofluorescence) after dexamethasone-induced atrophy (C2C12 myoblast cells [2]): restored
- MuRF1 expression (qRT-PCR) (C2C12 myoblast cells [2]): significantly reduced
- expression level of atrogin-1 (muscle atrophy marker, immunoblotting) (C2C12 myoblast cells [2]): decreased again
- expression of differentiation marker MHC (immunoblotting) (C2C12 cell lines [3]): induced an increase in the expression
- expression of differentiation marker myogenin (immunoblotting) (C2C12 cell lines [3]): induced an increase in the expression
- diameter of myotubes (C2C12 cell lines [4]): increased in a concentration-dependent manner
- muscle cell differentiation (myotube formation, MHC immunofluorescence) (C2C12 cell lines [4]; vs DMSO control): promoted in a concentration-dependent manner
- diameter of myotubes in CM-induced cancer cachexia model [5]: increased in a concentration-dependent manner
- proliferation of myoblast cells (BrdU immunofluorescence staining) (C2C12 myoblast cells [6]; vs DMSO): increased
- proportion of BrdU-positive cells (C2C12 myoblast cells [6]; vs DMSO control): significantly increased compared to the control
- tumor-free body weight ([7]; 0.02 mpk oral daily for 21 days, vs cancer-induced group): significantly increased compared to the cancer-induced group
- grip strength (motor ability) ([7]; 0.02 or 0.2 mpk oral daily for 21 days, vs cancer-induced group): increased in a concentration-dependent manner
- muscle mass loss of hindlimb muscles (TA, EDL, SOL, GA) [7, 9]: significantly improved
- reduction in fat and organ weights (white fat, visceral fat, liver, heart, spleen) [7, 9]: improved
- relative mRNA expression level of MuRF-1 [7, 9]: decreased again
- relative mRNA expression level of atrogin-1 [7, 9]: decreased again
- change (decrease) in tumor-free body weight ([7]; oral daily for 21 days, 0.02 or 0.2 mpk): improved
- overall body weight ([7]; oral daily for 21 days, 0.02 or 0.2 mpk, all experimental groups): no significant change
- increase of proportion of BrdU-positive cells compared to the control ([8]; TA muscle): more than 2.5 times
- proliferation of myoblast cells in TA muscle (BrdU staining) [8]: increased
